According to patent US20250032487A1, “DISSOLUTION TEST” (JANSSEN SCIENCES IRELAND UNLIMITED COMPANY, priority 2021, published 2025):

Test: In vitro dissolution test, paddle apparatus (USP type 2), polysorbate 20 in 0.05 M sodium phosphate buffer pH 7.4
Type: physicochemical
Method: The dissolution of the suspensions was tested using a paddle apparatus (USP type 2, Ph. Eur, JP) with a rotation speed of 50 rpm in 900 mL 6.0% w/v polysorbate 20 in 0.05 M sodium phosphate buffer pH 7.4 at 5° C. The sample amount corresponds to 18 mg rilpivirine.
After 360 minutes the temperature was increased to 37° C. and maintained for 60 minutes to simulate an infinity time point. The samples taken after the temperature infinity time points are labelled as 420 minutes.
The quantity of dissolved drug substance was determined by a gradient ultra-high performance liquid chromatographic (UHPLC) method with UV detection at 280 nm.
The dissolution of the three rilpivirine suspensions in water was performed using Paddle Apparatus (USP type 2, Ph.Eur., JP.) at 50 rpm in 900 mL of 6.0% w/v Polysorbate 20 in 0.05 M Sodium Phosphate buffer pH 7.4, at 5.0±0.5° C. An amount of 64.98 mg (=0.06 mL×1.083 g/mL (the theoretical density of the suspension))±5% of homogeneous suspension of rilpivirine (corresponding to 18±0.9 mg of rilpivirine) was added.
The determination of the quantity of rilpivirine present in the dissolution samples is based upon a gradient ultra-high performance liquid chromatographic (UHPLC) method with UV detection at 280 nm.
The dissolution of a suspension of nanoparticulate rilpivirine having a Dv50 of ˜200 nm was tested using the method of Example 1 but with different temperatures of the dissolution medium (37° C., 25° C., 15° C., and 5° C.).
The dissolution of a suspension of nanoparticulate rilpivirine having a Dv50 of 218 nm was tested using the method of Example 1 but with different concentrations of the surfactant (1-6% w/v polysorbate 20).

[1] = Example 4, nanoparticulate suspension Dv50 ~200 nm, 5° C., 6.0% w/v polysorbate 20, pH 7.4
[2] = Example 5, nanoparticulate suspension Dv50 218 nm, 6% polysorbate 20, 5° C., pH 7.4

% dissolved after 6 hours [1]: Over 85%
% dissolved at 5 minutes [1]: less than 30%
time until fully dissolved (Example 4, nanoparticulate suspension Dv50 ~200 nm, 37° C., 6.0% w/v polysorbate 20, pH 7.4, 50 rpm, 900 mL): around 10 minutes
delta % dissolved (difference between lowest and highest % dissolved in the dissolution profile) (Example 5, 6% polysorbate 20 method, suspension Dv50 218 nm, 5° C.): approximately 80%
% dissolved after 360 minutes [2]: more than 85%
initial release, % dissolved [2]: below 20%
SMILES: Cc1cc(/C=C/C#N)cc(C)c1Nc1ccnc(Nc2ccc(C#N)cc2)n1 [rilpivirine, 4-[[4-[[4-[(1E)-2-cyanoethenyl]-2,6-dimethylphenyl]amino]-2-pyrimidinyl]amino]benzonitrile]
